Values quoted from earlier work in US4782898A, “Determining residual oil saturation using carbon 14 labeled carbon dioxide” (priority 1986, dated 1988).

SMILES	distribution coefficient, Ki (ratio of concentration of tracer in the oil phase to that in the water phase)
O=[14C]=O [carbon 14 labeled CO2]	about 2
O=C=O [CO2, carbon dioxide]	about 2
